Laboratory results published in US20250353863A1, “TRICYCLIC SPIROLACTAM COMPOUNDS WITH ANTIMYCOBACTERIAL ACTIVITY” (priority 2022, published 2025).
≈ marks a conversion by molar mass, not a printed value.

What follows are molecules tested on Mtb H37Rv-WT (assay: MIC by resazurin microtiter assay (REMA) against Mtb). Settings: Mycobacterium tuberculosis, 144 h, REMA, 37° C., 6 days, read-out: MIC (μM) H37Rv-WT.
Format: cell-based
`CC(C)[C@H]1CO[C@]23CCN(Cc4cc(C5CC5)nc5ccccc45)C[C@H]2CCC(=O)N13` [(3S,7aR,11aR)-9-[(2-cyclopropyl-4-quinolyl)methyl]-3-isopropyl-2,3,6,7,7a,8,10,11-octahydrooxazolo[2,3-j][1,6]naphthyridin-5-one] gave an MIC of less than 1 µM.
`CC(C)[C@H]1CO[C@]23CCN(Cc4ccc(C(F)(F)F)cc4)C[C@H]2C[C@@H](F)C(=O)N13` [(3S,7aR,11aR)-6-fluoro-3-isopropyl-9-[[4-(trifluoromethyl)phenyl]methyl]-2,3,6,7,7a,8,10,11-octahydrooxazolo[2,3-j][1,6]naphthyridin-5-one] was tested, and the MIC was less than 1 µM.
Molecule `CC(C)[C@H]1CCO[C@]23CCN(Cc4ccc(C(F)(F)F)cc4)C[C@H]2CCC(=O)N13` has an MIC of 1 to 10 µM (≈ 0.41 to 4.1 µg/mL).
Work on `CC(C)[C@H]1CO[C@]23CCN(S(=O)(=O)CCCc4ccc(C(F)(F)F)cc4)C[C@H]2CCC(=O)N13` yielded an MIC of less than 1 µM.
`CC(C)[C@H]1CO[C@]23CCN(Cc4ccc(Cl)c(C(F)(F)F)c4)C[C@H]2CCC(=O)N13` [(3S,7aR,11aR)-9-[[4-chloro-3-(trifluoromethyl)phenyl]methyl]-3-isopropyl-2,3,6,7,7a,8,10,11-octahydrooxazolo[2,3-j][1,6]naphthyridin-5-one] showed an MIC of less than 1 µM.
For `CC(C)[C@H]1CO[C@]23CCN(Cc4ccc(C(F)(F)F)cc4)C[C@H]2OCC(=O)N13` [(1R,4S,9R)-4-isopropyl-11-[[4-(trifluoromethyl)phenyl]methyl]-2,8-dioxa-5,11-diazatricyclo[7.4.0.01,5]tridecan-6-one], the MIC was 1 to 10 µM (≈ 0.398 to 3.98 µg/mL).
With `CC(C)[C@H]1CO[C@]23CCN(CC4CCOCC4)C[C@H]2CCC(=O)N13` [(3S,7aR,11aR)-3-isopropyl-9-(tetrahydropyran-4-ylmethyl)-2,3,6,7,7a,8,10,11-octahydrooxazolo[2,3-j][1,6]naphthyridin-5-one] the MIC was greater than 10 µM.
`CC(C)[C@H]1CO[C@]23CCN(Cc4ccc(F)cc4)C[C@H]2CCC(=O)N13` [(3S,7aR,11aR)-9-[(4-fluorophenyl)methyl]-3-isopropyl-2,3,6,7,7a,8,10,11-octahydrooxazolo[2,3-j][1,6]naphthyridin-5-one] showed an MIC of less than 1 µM.
In the case of `CC(C)[C@H]1CO[C@]23CCN(Cc4ccc5ncccc5c4)C[C@H]2CCC(=O)N13` [(3S,7aR,11aR)-3-isopropyl-9-(6-quinolylmethyl)-2,3,6,7,7a,8,10,11-octahydrooxazolo[2,3-j][1,6]naphthyridin-5-one], the MIC is reported as 1 to 10 µM (≈ 0.38 to 3.8 µg/mL).
`CC(C)[C@H]1CO[C@]23CCN(Cc4cc5ccccc5n4C)C[C@H]2CCC(=O)N13` was tested, and the MIC was less than 1 µM.
Work on `CC(C)[C@H]1CO[C@]23CCN(CC(F)(F)c4ccc(C(F)(F)F)cc4)C[C@H]2CCC(=O)N13` [(3S,7aR,11aR)-9-[2,2-difluoro-2-[4-(trifluoromethyl)phenyl]ethyl]-3-isopropyl-2,3,6,7,7a,8,10,11-octahydrooxazolo[2,3-j][1,6]naphthyridin-5-one] yielded an MIC of less than 1 µM.
In the case of `CC(C)[C@H]1CO[C@]23CCN(Cc4ccc(Cl)cc4)C[C@H]2CCC(=O)N13` [(3S,7aR,11aR)-9-[(4-chlorophenyl)methyl]-3-isopropyl-2,3,6,7,7a,8,10,11-octahydrooxazolo[2,3-j][1,6]naphthyridin-5-one], the MIC is reported as less than 1 µM.
In the case of `C=C[C@H]1CO[C@]23CCN(Cc4ccc(C(F)(F)F)cc4)C[C@H]2CCC(=O)N13`, the MIC is reported as greater than 10 µM.
Work on `CC(C)[C@H]1CO[C@]23CCN(Cc4ccc(C(F)(F)F)cc4)C[C@H]2C[C@@H](C)C(=O)N13` yielded an MIC of less than 1 µM.
Work on `CC(C)[C@H]1CO[C@]23CCN(Cc4ccc(O)cc4)C[C@H]2CCC(=O)N13` [(3S,7aR,11aR)-9-[(4-hydroxyphenyl)methyl]-3-isopropyl-2,3,6,7,7a,8,10,11-octahydrooxazolo[2,3-j][1,6]naphthyridin-5-one] yielded an MIC greater than 10 µM.
Work on `CC(C)[C@H]1CO[C@]23CCN(Cc4ccc(N5CCC(c6ccc(OC(F)(F)F)cc6)CC5)cc4)C[C@H]2CCC(=O)N13` [(3S,7aR,11aR)-3-isopropyl-9-[[4-[4-[4-(trifluoromethoxy)phenyl]-1-piperidyl]phenyl]methyl]-2,3,6,7,7a,8,10,11-octahydrooxazolo[2,3-j][1,6]naphthyridin-5-one] yielded an MIC of less than 1 µM.
`CC(C)[C@H]1CO[C@]23CCCN(Cc4ccc(C(F)(F)F)cc4)C[C@H]2CCC(=O)N13` [(4S,9R)-4-isopropyl-11-[[4-(trifluoromethyl)phenyl]methyl]-2-oxa-5,11-diazatricyclo[7,5,0.01,5]tetradecan-6-one] showed an MIC of less than 1 µM.
With `CC(C)[C@H]1CO[C@]23CC[C@H](NCc4ccc(C(F)(F)F)cc4)C[C@H]2CCC(=O)N13` the MIC was less than 1 µM.
In the case of `CC(C)[C@H]1CO[C@]23CCN(Cc4ccc(-c5ccccc5)cc4)C[C@H]2CCC(=O)N13` [(3S,7aR,11aR)-3-isopropyl-9-[(4-phenylphenyl)methyl]-2,3,6,7,7a,8,10,11-octahydrooxazolo[2,3-j][1,6]naphthyridin-5-one], the MIC is reported as less than 1 µM.
With `CC(C)[C@H]1CO[C@]23CC[C@@H](N(Cc4ccc(C(F)(F)F)cc4)Cc4ccc(C(F)(F)F)cc4)C[C@H]2CCC(=O)N13` the MIC was less than 1 µM.
For `Cc1ccc(CN2CC[C@]34OC[C@H](C(C)C)N3C(=O)CC[C@@H]4C2)cc1` [(3S,7aR,11aR)-3-isopropyl-9-(p-tolylmethyl)-2,3,6,7,7a,8,10,11-octahydrooxazolo[2,3-j][1,6]naphthyridin-5-one], the MIC was 1 to 10 µM (≈ 0.342 to 3.42 µg/mL).
With `C=CC[C@@H]1C[C@@H]2CN(Cc3ccc(C(F)(F)F)cc3)CC[C@@]23OC[C@H](C(C)C)N3C1=O` [(3S,6R,7aR,11aR)-6-allyl-3-isopropyl-9-[[4-(trifluoromethyl)phenyl]methyl]-2,3,6,7,7a,8,10,11-octahydrooxazolo[2,3-j][1,6]naphthyridin-5-one] the MIC was 1 to 10 µM (≈ 0.437 to 4.37 µg/mL).
With `CC(C)[C@H]1CO[C@]23CCN(Cc4ccc(C(F)(F)F)cc4)C(=O)[C@H]2CCC(=O)N13` [(3S,7aS,11aR)-3-isopropyl-9-[[4-(trifluoromethyl)phenyl]methyl]-3,6,7,7a,10,11-hexahydro-2H-oxazolo[2,3-j][1,6]naphthyridine-5,8-dione] the MIC was greater than 10 µM.

Same assay, conditions: Mycobacterium tuberculosis, 144 h, REMA, read-out: MIC M. tuberculosis
`CC(C)[C@H]1CO[C@]23CC[C@H](N(Cc4ccc(C(F)(F)F)cc4)Cc4ccc(C(F)(F)F)cc4)C[C@H]2CCC(=O)N13` [Example 70, (3S,7aR,9S,11aR)-9-[bis[[4-(trifluoromethyl)phenyl]methyl]ami-no]-3-isopropyl-3,6,7,7a,8,9,10,11-octahydro-2H-oxazolo[2,3-j]quinolin-5-one] gave an MIC of less than 1 µM.

Same assay, conditions: Mycobacterium tuberculosis, 144 h, read-out: MIC (μM) H37Rv-WT
`CC(C)[C@H]1CO[C@]23CCN(Cc4ccncc4)C[C@H]2CCC(=O)N13` [(3S,7aR,11aR)-3-isopropyl-9-(4-pyridylmethyl)-2,3,6,7,7a,8,10,11-octahydrooxazolo[2,3-j][1,6]naphthyridin-5-one] gave an MIC greater than 10 µM.

Same assay, conditions: Mycobacterium tuberculosis, REMA, read-out: MIC M. tuberculosis
For `CC(C)[C@H]1CO[C@]23CCN(Cc4ccc(C(F)(F)F)cc4C(F)(F)F)C[C@H]2CCC(=O)N13` [Example 10, (3S,7aR,11aR)-9-[[2,4-bis(trifluoromethyl)phenyl]methyl]-3-isopropyl-2,3,6,7,7a,8,10,11-octahydrooxazolo[2,3-j][1,6]naphthyridin-5-one], the MIC was less than 1 µM.
With `CC(C)[C@H]1CO[C@]23CCN(Cc4cc(C5CC5)nc5ccccc45)C[C@H]2CCC(=O)N13` [Example 24, (3S,7aR,11aR)-9-[(2-cyclopropyl-4-quinolyl)methyl]-3-isopropyl-2,3,6,7,7a,8,10,11-octahydrooxazolo[2,3-j][1,6]naphthyridin-5-one] the MIC was less than 1 µM.
